# Entries after “also recorded” stand apart in the source; their conditions may differ.
# What was measured:
# [1] = system: 45-bp dsDNA; test: DNA intercalation: acridine orange displacement from dsDNA by fluorescence polarization; assay type: binding
# Method in brief: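 Acridine orange displacement from 45-bp dsDNA in HEN buffer (10 mM HEPES pH 7.5, 1 mM EDTA, 100 mM NaCl), compounds at 30 µM final, 30 min incubation. Fluorescence polarization read in mP, buffer-corrected, G-factor 1.0; mitoxantrone 50 µM and DMSO as controls.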
# [2] = system: RAW 264.7; test: Cytotoxicity, CellTiter-Glo ATP quantitation at 72 h; assay type: cell-based; conditions: for LD50: RAW macrophages, 72 h, percent viability
# Experimental: Small-molecule compounds were serially diluted to concentrations spanning the range tested in the response curves were added to 6.7 × 10^5 RAW-Blue macrophages plated 16 h prior in 96-well dishes, then harvested 72 h after compound addition. ATP was measured using CellTiter Glo Viability Assay (Promega) using 50 µM Tamoxifen (Sigma) as a positive control for cytotoxicity. Viability values were generated using vehicle (DMSO) or the first dose (RU.521) as 100% and Tamoxifen as 0%. Outliers were removed as described previously.
# [3] = system: RAW macrophage cells stimulated with 5′ppp-HP20 RNA, Pam3CSK4, poly(I:C), LPS or recombinant Ifnb; test: Selectivity: RAW macrophages stimulated with non-DNA immunogenic ligands (luciferase reporter or Il-6 qRT-PCR); assay type: cell-based, mouse
# Experimental: (§1) The sequence and annealing conditions of the dsDNA used is described above. Typically, 0.4 µg or 0.6 µg of dsDNA was used to stimulate RAW-Lucia ISG-KO-TREX1/ISG-KO-cGAS or RAW-Lucia ISG cells, respectively, which equated to 90% of maximal luciferase activity observed. dsDNA stimulation of RAW macrophages and subsequent luciferase measurements were performed with or without the addition of small molecules at indicated concentrations in each figure, or with DMSO as vehicle control. For the dose curve experiments, serial dilutions of inhibitors were applied to 6.7 × 10^5 cells, plated in 24-well dishes, and co-stimulated with 0.4 µg of dsDNA. In subsequent experiments using inhibitors in RAW cells, the small molecules were used at concentrations representing the derived EC75 values, while co-stimulated with one of the following: 0.4 µg dsDNA, 50 nM 5′ppp-HP20 hairpin RNA (a kind gift from Dr Anna Pyle, Yale University; sequence located in Supplementary Table 5), 10 µM cGAMP, or 100 U ml^−1 murine recombinant Ifnb (R&D Systems). dsDNA was transfected using Lipofectamine LTX. 5′ppp-HP20 RNA was transfected using Lipofectamine 2000. Cells were harvested 24 h post-transfection, washed with PBS, and lysed in 1× Luciferase Cell Lysis Buffer (Pierce).
# The minimum numbers of biological and technical replicates for the luciferase assays were two and three, respectively. Analysis of luminescence values were evaluated for outliers (one standard deviation above and below the mean) for each biological replicate, and the resulting means were used to generate graphs in GraphPad Prism (v. 7.0c); where applicable, an unpaired t-test with Welch’s correction was used to compare the results of each individual compound to dsDNA or other stimulant. The experimental variances observed within control samples (untreated or vehicle) and treated samples were similar.
# The small molecules were used at concentrations representing the EC75 values and were co-stimulated with either 200 ng Pam3CSK4 (Invivogen), 25 µg poly(I:C) or 100 ng lipopolysaccharide (Sigma-Aldrich) at the cell counts and conditions previously described for the cellular luciferase assays. Cells were harvested 24 h post-transfection, washed with PBS, and RNA was extracted using Trizol (Ambion) and chloroform (Sigma-Aldrich). In all, 1–2 µg of total RNA was reverse-transcribed using random hex primers and SuperScript III (Life Technologies) into cDNA. […] The expression of mRNAs […] murine Actb1 and Il-6 were measured (see Supplementary Table 5 for primer sequences used). Target C T values were normalized to Actb1 C T values and used to calculate ΔC T. mRNA expression of target genes were then calculated using the ΔΔC T method (2^ΔΔCT). Expression values were analyzed as described in the method for cellular luciferase assays.
# [4] = target: T1, apo-cGAS (Mus musculus, UniProt Q8C6L5); test: Isothermal titration calorimetry, cGAS in absence of dsDNA; assay type: binding
# T1 construct: full-length (for high-throughput screening) and residues 147–507 (for structural study) of cGAS; His6-SUMO (N, cleaved yes); made in house; host or cells: E. coli BL21(DE3) RIL
# T1 sequence (Q8C6L5 147-507): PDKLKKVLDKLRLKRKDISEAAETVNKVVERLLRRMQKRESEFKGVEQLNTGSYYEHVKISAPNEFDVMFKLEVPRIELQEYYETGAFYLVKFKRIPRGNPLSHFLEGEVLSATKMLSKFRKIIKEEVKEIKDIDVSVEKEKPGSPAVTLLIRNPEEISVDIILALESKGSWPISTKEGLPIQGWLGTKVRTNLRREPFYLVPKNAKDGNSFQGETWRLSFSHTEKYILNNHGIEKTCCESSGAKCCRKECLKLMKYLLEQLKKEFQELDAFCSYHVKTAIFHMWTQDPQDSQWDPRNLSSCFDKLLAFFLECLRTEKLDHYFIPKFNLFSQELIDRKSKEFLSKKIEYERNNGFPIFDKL
# Experimental: ITC measurements were performed at 25 °C using a MicroCal auto-iTC200 calorimeter (MicroCal, LLC). Purified truncated mouse cGAS was dialyzed against 40 mM HEPES buffer (pH 7.5) and 300 mM NaCl for 24 h at 4 °C. Dialysis led to some precipitation, which were removed through centrifugation followed by collection of the supernatant. The concentration of the protein in supernatant was measured using Pierce® BCA protein assay. The protein was flash frozen in liquid N2 and stored at −80 °C. For the ITC assay, the dialyzed protein was prediluted to 20 µM in the dialysis buffer and diluted to a final concentration of 10 µM in a final buffer containing 40 mM HEPES, 1% DMSO, 150 mM NaCl, 0.01% Tween-20 and + /− dsDNA 10 µM and + /− ATP or GTP 1 mM. Then, 2 μl RU.365 100 µM, dissolved in the buffer aforementioned, were injected into 0.2 ml of protein in the chamber every 150 s. Data for raw ITC and thermodynamic curves, each from one experiment, were downloaded after analysis using Affinimeter software and plotted using GraphPad Prism (7.01). The software calculates error bars as an indication of the contribution of the raw data noise that is determined from the integral of the standard deviation of the baseline during the injection.
# [5] = system: RAW KO-cGAS reporter cells; test: RAW KO-cGAS reporter cells stimulated with cGAMP; assay type: cell-based, mouse
# Experimental: as §1
"Polarization ([1]; Supplementary Table 2, compound 30 µM) [mP]",Kd [4] [nM],T*ΔS [4] [kcal/mol],rM [4],ΔG [4] [kcal/mol],ΔH [4] [kcal/mol],SMILES,"% intercalation at 30 µM ([1]; Supplementary Table 2, acridine orange displacement compared to mitoxantrone) [%]",LD50 over cellular IC50 [2] [fold],LD50 ([2]; listed as RU.365) [µM],"Il-6 mRNA expression ([3]; cells activated by Pam3CSK4, poly(I:C), or LPS, qRT-PCR)",DNA intercalation or interaction ([1]; acridine orange competition screen),LD50 ([2]; listed as RU.521) [µM],"inhibition of cells stimulated with recombinant Ifnb ([3]; JAK/STAT signaling, luciferase reporter)","suppression of activation by immunogenic stimuli other than dsDNA ([3]; compound at EC75, 5′ppp-HP20 RNA, Pam3CSK4, poly(I:C), LPS, Ifnb, listed as RU.521)",inhibition of reporter activity [5]
264,98.5,-1.511,0.9384,-9.559,-11.07,Cc1nn(-c2nc3ccccc3[nH]2)c(O)c1C1OC(=O)c2ccccc21 (stereo not shown) [RU166365],-6.7,9,45,increased Il-6 messenger RNA (mRNA) expression,–,–,–,–,–
–,–,–,–,–,–,"Cc1nn(-c2nc3ccc(Cl)c(Cl)c3[nH]2)c(O)c1C1OC(=O)c2ccccc21 (stereo not shown) [RU320521, 3-[1-(6,7-dichloro-1H-benzimidazol-2-yl)-5-hydroxy-3-methyl-pyrazol-4-yl]-3H-isobenzofuran-1-one]",–,88,–,–,did not show any indication that it could act in a manner that could intercalate or interact with DNA,62,did not inhibit,unable to potently suppress activation; also recorded: little to no inhibitory effects,did not show any significant inhibition of reporter activity
